≈ marks a conversion by molar mass, not a printed value. Where a name gives a salt, the structure may show the parent alone.
Key:
Staphylococcus aureus [1] = test: Antibacterial activity against Staphylococcus aureus 209P assessed as zone of inhibition at 5 mg/ml by agar well diffusion method; format: functional; conditions: read-out: DIZ
Staphylococcus aureus [2] = test: Antibacterial activity against Staphylococcus aureus 209P assessed as zone of inhibition at 1 mg/ml by agar well diffusion method; format: functional; conditions: read-out: DIZ
Escherichia coli [3] = test: Antibacterial activity against Escherichia coli ATCC 35421 assessed as zone of inhibition at 1 mg/ml by agar well diffusion method; format: functional; conditions: read-out: DIZ
Candida albicans [4] = test: Antifungal activity against Candida albicans A01 assessed as zone of inhibition at 5 mg/ml by agar well diffusion method; format: functional; conditions: read-out: DIZ
Escherichia coli [5] = test: Antibacterial activity against Escherichia coli ATCC 35421 assessed as zone of inhibition at 5 mg/ml by agar well diffusion method; format: functional; conditions: read-out: DIZ
Candida albicans [6] = test: Antifungal activity against Candida albicans A01 assessed as zone of inhibition at 1 mg/ml by agar well diffusion method; format: functional; conditions: read-out: DIZ
Staphylococcus aureus [7] = test: Antibacterial activity against Staphylococcus aureus 209P after 24 to 48 hrs by macro-broth dilution method; format: functional
[8] = test system: Staphylococcus epidermidis; test: Antibacterial activity against Staphylococcus epidermidis 209E after 24 to 48 hrs by macro-broth dilution method; format: functional
Staphylococcus aureus [9] = test: Antibacterial activity against methicillin-resistant Staphylococcus aureus 3710 after 24 to 48 hrs by macro-broth dilution method; format: functional
HeLa [10] = test: Cytotoxicity against human HeLa cells assessed as reduction in cell viability after 48 hrs by SRB assay; format: functional, cell-based
HeLa [11] = test: Cytotoxicity against human HeLa cells assessed as cell growth at 10^-6 M after 48 hrs by SRB assay relative to control; format: functional; conditions: read-out: Activity
Escherichia coli [12] = test: Antibacterial activity against Escherichia coli ATCC 35421 after 24 to 48 hrs by macro-broth dilution method; format: functional
Pseudomonas aeruginosa = test: Antibacterial activity against Pseudomonas aeruginosa M5 after 24 to 48 hrs by macro-broth dilution method; format: functional
HeLa [13] = test: Growth inhibition of human HeLa cells after 48 hrs by SRB assay; format: functional
HeLa [14] = test: Cytotoxicity against human HeLa cells assessed as cell growth at 10^-7 M after 48 hrs by SRB assay relative to control; format: functional; conditions: read-out: Activity
HeLa [15] = test: Cytotoxicity against human HeLa cells assessed as cell growth at 10^-5 M after 48 hrs by SRB assay relative to control; format: functional; conditions: read-out: Activity
Escherichia coli [16] = test: Antibacterial activity against Escherichia coli ATCC 20732 after 24 to 48 hrs by macro-broth dilution method; format: functional
HeLa [17] = test: Cytotoxicity against human HeLa cells assessed as cell growth at 10^-4 M after 48 hrs by SRB assay relative to control; format: functional; conditions: read-out: Activity
Staphylococcus aureus [18] = test: Antibacterial activity against methicillin-resistant Staphylococcus aureus ATCC 33591 after 24 to 48 hrs by macro-broth dilution method; format: functional

Molecule | zone of inhibition at 5000 µg/mL (Staphylococcus aureus [1]) [mm] | zone of inhibition at 1000 µg/mL (Staphylococcus aureus [2]) [mm] | zone of inhibition at 1000 µg/mL (Escherichia coli [3]) [mm] | zone of inhibition at 5000 µg/mL (Candida albicans [4]) [mm] | zone of inhibition at 5000 µg/mL (Escherichia coli [5]) [mm] | zone of inhibition at 1000 µg/mL (Candida albicans [6]) [mm] | also measured
CCOc1ccc2sc(Cl)nc2c1 | ≤ 7 | ≤ 7 | ≤ 7 | ≤ 7 | ≤ 7 | ≤ 7 | –
CC(=O)NC[C@H]1CN(c2ccc(N3CCOCC3)c(F)c2)C(=O)O1 [LINEZOLID] | – | – | – | – | – | – | MIC (Staphylococcus aureus [7]): 1 µg/mL (≈ 2.96 µM); MIC [8]: 1 µg/mL (≈ 2.96 µM)
CS(=O)(=O)c1nc2cc(O)ccc2s1 | ≤ 7 | ≤ 7 | ≤ 7 | ≤ 7 | ≤ 7 | ≤ 7 | –
CCOc1ccc2sc(S(C)(=O)=O)nc2c1S(=O)(=O)N1CCO[C@H](COc2ccccc2)C1 | 9 | ≤ 7 | ≤ 7 | ≤ 7 | ≤ 7 | ≤ 7 | –
CCOc1ccc2sc(S(C)(=O)=O)nc2c1S(=O)(=O)NC(C)(C)C | 13 | ≤ 7 | 9 | ≤ 7 | 10 | ≤ 7 | MIC (Staphylococcus aureus [9]): 10 µg/mL (≈ 25.5 µM); Activity (HeLa [10]): Dose-dependent effect; MIC (Staphylococcus aureus [7]): 8 µg/mL (≈ 20.4 µM); growth at 1 µM (HeLa [11]): 42.1%; MIC (Escherichia coli [12]): 20 µg/mL (≈ 51 µM); MIC (Pseudomonas aeruginosa): 50 µg/mL (≈ 127 µM); GI50 (HeLa [13]): 0.6 µM; LC50 (HeLa [13]): 76.6 µM; TGI (HeLa [13]): 38.6 µM; growth inhibition (GI) (HeLa [13]): Dose-dependent effect; growth at 0.1 µM (HeLa [14]): 97.9%; growth at 10 µM (HeLa [15]): -6.7%; MIC (Escherichia coli [16]): 20 µg/mL (≈ 51 µM); growth at 100 µM (HeLa [17]): -76.3%; MIC [8]: 10 µg/mL (≈ 25.5 µM); MIC (Staphylococcus aureus [18]): 10 µg/mL (≈ 25.5 µM)
CCOc1ccc2sc(S(C)(=O)=O)nc2c1S(=O)(=O)NC1CC1 | ≤ 7 | ≤ 7 | ≤ 7 | ≤ 7 | ≤ 7 | ≤ 7 | –
CCOc1ccc2sc(S(C)(=O)=O)nc2c1S(=O)(=O)NC(C)C | ≤ 7 | ≤ 7 | ≤ 7 | ≤ 7 | ≤ 7 | ≤ 7 | –
CCOc1ccc2sc(S(C)(=O)=O)nc2c1S(=O)(=O)Cl | ≤ 7 | ≤ 7 | ≤ 7 | ≤ 7 | ≤ 7 | ≤ 7 | –
COc1cccc2c1C(=O)c1c(O)c3c(c(O)c1C2=O)C[C@@](O)(C(=O)CO)C[C@@H]3O[C@H]1C[C@H](N)[C@H](O)[C@H](C)O1 [DOXORUBICIN HYDROCHLORIDE] | – | – | – | – | – | – | growth at 1 µM (HeLa [11]): -82.9%; GI50 (HeLa [13]): < 0.1 µM; TGI (HeLa [13]): < 0.1 µM; growth at 0.1 µM (HeLa [14]): -76.8%; growth at 10 µM (HeLa [15]): -84.1%; growth at 100 µM (HeLa [17]): -84.6%
CCOc1ccc2sc(S(C)(=O)=O)nc2c1NC(=O)CCl | ≤ 7 | ≤ 7 | ≤ 7 | ≤ 7 | ≤ 7 | ≤ 7 | –
CCOc1ccc2sc(S(C)(=O)=O)nc2c1S(=O)(=O)NC(CC)CC | 21 | 13 | 9 | ≤ 7 | 10 | ≤ 7 | MIC (Staphylococcus aureus [9]): 100 µg/mL (≈ 246 µM); Activity (HeLa [10]): Dose-dependent effect; MIC (Staphylococcus aureus [7]): 50 µg/mL (≈ 123 µM); growth at 1 µM (HeLa [11]): 89.4%; MIC (Escherichia coli [12]): 50 µg/mL (≈ 123 µM); MIC (Pseudomonas aeruginosa): 100 µg/mL (≈ 246 µM); GI50 (HeLa [13]): 19.5 µM; LC50 (HeLa [13]): 87.4 µM; TGI (HeLa [13]): 53.5 µM; growth inhibition (GI) (HeLa [13]): Dose-dependent effect; growth at 0.1 µM (HeLa [14]): 91.8%; growth at 10 µM (HeLa [15]): 35.6%; MIC (Escherichia coli [16]): 50 µg/mL (≈ 123 µM); growth at 100 µM (HeLa [17]): -65.8%; MIC [8]: 50 µg/mL (≈ 123 µM); MIC (Staphylococcus aureus [18]): 100 µg/mL (≈ 246 µM)
CCOc1ccc2sc(S(C)(=O)=O)nc2c1S(=O)(=O)NCc1ccccc1 | ≤ 7 | ≤ 7 | ≤ 7 | 9 | ≤ 7 | ≤ 7 | –
CCOc1ccc2sc(S(C)(=O)=O)nc2c1S(=O)(=O)O | ≤ 7 | ≤ 7 | ≤ 7 | 9 | ≤ 7 | ≤ 7 | –
CCOc1ccc2sc(S(C)(=O)=O)nc2c1S(=O)(=O)Nc1ccc(Br)cc1 | 11 | 9 | 9 | ≤ 7 | 10 | ≤ 7 | Activity (HeLa [10]): Dose-dependent effect; growth at 1 µM (HeLa [11]): 73.7%; GI50 (HeLa [13]): 6.8 µM; LC50 (HeLa [13]): 74.5 µM; TGI (HeLa [13]): 40.6 µM; growth inhibition (GI) (HeLa [13]): Dose-dependent effect; growth at 0.1 µM (HeLa [14]): 95.9%; growth at 10 µM (HeLa [15]): -11.2%; growth at 100 µM (HeLa [17]): -82.3%
CCOc1ccc2sc(S(C)(=O)=O)nc2c1NC(=O)CNCN1CCCC1 | ≤ 7 | ≤ 7 | ≤ 7 | ≤ 7 | ≤ 7 | ≤ 7 | –
GENTAMICIN | – | – | – | – | – | – | MIC (Escherichia coli [12]): 1 µg/mL; MIC (Pseudomonas aeruginosa): 2 µg/mL; MIC (Escherichia coli [16]): 1 µg/mL
CCOc1ccc2sc(S(C)(=O)=O)nc2c1NC(=O)CNCN1CCN(C(=O)OC(C)(C)C)CC1 | 8 | ≤ 7 | ≤ 7 | ≤ 7 | ≤ 7 | ≤ 7 | –
CCCNS(=O)(=O)c1c(OCC)ccc2sc(S(C)(=O)=O)nc12 | ≤ 7 | ≤ 7 | ≤ 7 | ≤ 7 | ≤ 7 | ≤ 7 | –
CCNS(=O)(=O)c1c(OCC)ccc2sc(S(C)(=O)=O)nc12 | ≤ 7 | ≤ 7 | ≤ 7 | ≤ 7 | ≤ 7 | ≤ 7 | –
CCOc1ccc2sc(S(C)(=O)=O)nc2c1NC(=O)CN1CCOCC1 | ≤ 7 | 9 | ≤ 7 | ≤ 7 | ≤ 7 | ≤ 7 | –
CCOc1ccc2sc(S(C)(=O)=O)nc2c1[N+](=O)[O-] | 8 | ≤ 7 | ≤ 7 | ≤ 7 | ≤ 7 | ≤ 7 | –
CS(=O)(=O)c1nc2cc(OCc3ccc(OCc4ccccc4)cc3)ccc2s1 | ≤ 7 | ≤ 7 | ≤ 7 | ≤ 7 | ≤ 7 | ≤ 7 | –
CCOc1ccc2sc(S(C)(=O)=O)nc2c1 | 8 | ≤ 7 | ≤ 7 | ≤ 7 | ≤ 7 | ≤ 7 | –
O=C(O)c1cn(C2CC2)c2cc(N3CCNCC3)c(F)cc2c1=O [CIPROFLOXACIN] | – | – | – | – | – | – | MIC (Staphylococcus aureus [7]): 8 µg/mL (≈ 24.1 µM); MIC [8]: 8 µg/mL (≈ 24.1 µM)
CCOc1ccc2sc(S(C)(=O)=O)nc2c1NC(=O)CNC(C)C | ≤ 7 | ≤ 7 | ≤ 7 | ≤ 7 | ≤ 7 | ≤ 7 | –
CCOc1ccc2sc(S(C)(=O)=O)nc2c1S(=O)(=O)Nc1ccc(Cl)c(Cl)c1 | ≤ 7 | ≤ 7 | ≤ 7 | ≤ 7 | ≤ 7 | ≤ 7 | –
CCOc1ccc2sc(S(C)(=O)=O)nc2c1S(=O)(=O)NC | ≤ 7 | ≤ 7 | ≤ 7 | ≤ 7 | ≤ 7 | ≤ 7 | –
CS(=O)(=O)c1nc2cc(OCc3ccccc3)ccc2s1 | ≤ 7 | 8 | ≤ 7 | ≤ 7 | ≤ 7 | ≤ 7 | –
CS(=O)(=O)c1nc2cc(OCc3ccc(-c4ccccc4)cc3)ccc2s1 | ≤ 7 | ≤ 7 | ≤ 7 | ≤ 7 | ≤ 7 | ≤ 7 | –

Reference: ChEMBL document CHEMBL3994655, “Methylsulfonyl benzothiazoles (MSBT) derivatives: Search for new potential antimicrobial and anticancer agents” (2017)
